Columns and labels:
[1] = Inhibition of leukotriene synthesis was assessed from inhibitory activity against human PMN.; type: functional
[2] = Compound was tested for bioavailability in squirrel monkey; type: ADME, organism-based, Saimiri sciureus; settings: in vivo
[3] = organism: Rattus norvegicus; experiment: The effective dose was measured in antigen-induced dyspnea in inbred hyperreactive rats.; type: functional
[4] = Percentage blockade of ascaris-induced bronchoconstriction by the compound was determined at a dose of 1 mg/kg in conscious squirrel monkey; type: functional
[5] = Compound was tested for bioavailability in rats; type: ADME, organism-based; settings: rat, in vivo
[6] = organism: Rattus norvegicus; experiment: The effective dose was measured by using rat pleurisy assay.; type: functional

Compound | IC50 [1] [nM] | further results
CCCCCC(O)c1ccc(OCc2ccc3ccccc3n2)cc1 (stereo unspecified) | 90 | –
O=C(O)CO/N=C(\CCCc1ccccc1)c1ccc(OCc2ccc3ccccc3n2)cc1 | 80 | –
O=C(O)CSC(CCCc1ccc(Cl)cc1)c1ccc(OCc2ccc3ccccc3n2)cc1 (stereo unspecified) | 7 | bioavailability [2]: 93%; ED50 [3]: 0.035 mg/kg; Blockade [4]: 80%; bioavailability [5]: 100%; ED50 [6]: 1.6 mg/kg
OC(CCCc1ccccc1)c1ccc(OCc2ccc3ccccc3n2)cc1 (stereo unspecified) | 30 | –

Continued, in another order:

IC50 [1] [nM] | Compound | further results
3 | O=C(O)CSC(CCCc1ccccc1)c1ccc(OCc2ccc3ccccc3n2)cc1 (stereo unspecified) [AZD-4769] | –
1800 | CCCCCC(O)c1cccc(OCc2ccc3ccccc3n2)c1 (stereo unspecified) [REV-5901] | –

From ChEMBL document CHEMBL1125962, “A new class of leukotriene biosynthesis inhibitors: The development of ((4-(4-chlorophenyl)-1-(4-(2-quinolinylmethoxy)phenyl)butyl)thio)acetic acid, L-674,636” (Bioorg Med Chem Lett, 1991)
